The results in this text go back to ChEMBL document CHEMBL4732086, “Targeting nuclear protein TDP-43 by cell division cycle kinase 7 inhibitors: A new therapeutic approach for amyotrophic lateral sclerosis” (Eur J Med Chem, 2021).

The source made the active and inactive calls. The rule behind the calls is not given here.

Experiment [1] addresses CDC7/DBF4 (Cell division cycle 7-related protein kinase/Activator of S phase kinase) (Homo sapiens, UniProt O00311). Briefly: Inhibition of recombinant human CDC7/Dbf4 expressed in baculovirus infected Sf9 insect cells assessed as inhibition of fluorescein labelled substrate phosphorylation in presence of ATP measured after 60 mins by TR-FRET assay. (In general: TR-FRET usually uses a lanthanide donor and a delayed reading to cut background.)

Experiment [2] has as its target Cell division cycle 7-related protein kinase (Homo sapiens) (UniProt O00311). Nature of the experiment: Inhibition of human CDC7 in human SH-SY5Y cells assessed as prevention of ethacrynic acid-induced cell death preincubated for 1 hr followed by incubation with ethacrynic acid for 24 hrs measured at 10 uM by MTT assay relative to control. In kind it is cell-based. (Tetrazolium dyes change colour on reduction, which living cells bring about.)

Experiment [3] has as its target CDC7/DBF4 (Cell division cycle 7-related protein kinase/Activator of S phase kinase) (Homo sapiens) (UniProt Q9UBU7+O00311). Briefly: Inhibition of recombinant human CDC7/Dbf4 expressed in baculovirus infected Sf9 insect cells assessed as inhibition of fluorescein labelled substrate phosphorylation in presence of ATP at 10 uM measured after 60 mins by TR-FRET assay.

Sequence of CDC7/DBF4 (Cell division cycle 7-related protein kinase/Activator of S phase kinase) (Q9UBU7 whole entry): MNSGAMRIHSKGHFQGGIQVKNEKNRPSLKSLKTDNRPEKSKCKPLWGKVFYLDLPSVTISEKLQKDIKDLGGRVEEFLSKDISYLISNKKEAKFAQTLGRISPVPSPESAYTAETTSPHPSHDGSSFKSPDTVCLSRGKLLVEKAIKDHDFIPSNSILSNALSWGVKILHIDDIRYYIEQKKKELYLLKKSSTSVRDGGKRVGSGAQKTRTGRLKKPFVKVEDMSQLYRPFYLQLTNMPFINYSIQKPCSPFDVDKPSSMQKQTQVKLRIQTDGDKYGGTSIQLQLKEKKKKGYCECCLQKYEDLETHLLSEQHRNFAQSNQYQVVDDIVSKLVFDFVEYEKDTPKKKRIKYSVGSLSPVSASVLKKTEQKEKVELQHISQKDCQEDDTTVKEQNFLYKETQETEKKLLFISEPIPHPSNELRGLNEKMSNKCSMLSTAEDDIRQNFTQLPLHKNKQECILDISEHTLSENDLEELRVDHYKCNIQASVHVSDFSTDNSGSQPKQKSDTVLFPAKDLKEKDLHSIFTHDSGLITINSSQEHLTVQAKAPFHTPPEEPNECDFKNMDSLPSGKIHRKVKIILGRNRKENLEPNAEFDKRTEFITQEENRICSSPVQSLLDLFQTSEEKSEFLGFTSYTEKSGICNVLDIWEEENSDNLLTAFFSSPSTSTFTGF
Sequence of CDC7/DBF4 (Cell division cycle 7-related protein kinase/Activator of S phase kinase) (O00311 whole entry): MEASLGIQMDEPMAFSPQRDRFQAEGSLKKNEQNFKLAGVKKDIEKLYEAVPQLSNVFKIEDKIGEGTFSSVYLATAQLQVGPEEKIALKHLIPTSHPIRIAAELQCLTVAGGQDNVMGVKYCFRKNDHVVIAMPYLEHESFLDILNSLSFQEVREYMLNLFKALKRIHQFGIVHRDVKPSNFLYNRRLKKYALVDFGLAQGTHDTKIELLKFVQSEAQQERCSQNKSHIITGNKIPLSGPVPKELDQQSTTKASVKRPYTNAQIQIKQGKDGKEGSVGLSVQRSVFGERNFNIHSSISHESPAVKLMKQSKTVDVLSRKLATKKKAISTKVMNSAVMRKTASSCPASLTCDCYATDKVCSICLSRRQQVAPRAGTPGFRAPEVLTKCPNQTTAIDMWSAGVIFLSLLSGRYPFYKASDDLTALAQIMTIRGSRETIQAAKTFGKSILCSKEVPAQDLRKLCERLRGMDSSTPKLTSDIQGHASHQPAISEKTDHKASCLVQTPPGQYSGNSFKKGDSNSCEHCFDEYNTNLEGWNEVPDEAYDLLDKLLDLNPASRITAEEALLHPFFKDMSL
Sequence of CDC7/DBF4 (Cell division cycle 7-related protein kinase/Activator of S phase kinase) (Homo sapiens) (O00311 whole entry, looked up): as the sequence (O00311 whole entry) above
Sequence of CDC7/DBF4 (Cell division cycle 7-related protein kinase/Activator of S phase kinase) (Homo sapiens) (Q9UBU7 whole entry, looked up): as the sequence (Q9UBU7 whole entry) above
Sequence of Cell division cycle 7-related protein kinase (Homo sapiens) (O00311 whole entry, looked up): as the sequence (O00311 whole entry) above

Broadly, the IC50 is the midpoint of a concentration-inhibition curve. Broadly, the inhibition is how much of the control response was suppressed. Consider `Clc1ccccc1CSc1ncnc2[nH]cnc12`, for which the IC50 in experiment [1] is 90 nM. Moreover, in experiment [2], the inhibition entry is “Active”.

On to `Clc1cccc(COc2ncnc3[nH]cnc23)c1`, for which, in experiment [1], the IC50 is 190 nM. Further, in experiment [2], the inhibition result is “Active”.

With `N#Cc1ccc(CSc2ncnc3[nH]cnc23)cc1`, the IC50 in experiment [1] was determined as 290 nM.

On to `N#Cc1cccc(CSc2ncnc3[nH]cnc23)c1`, for which the IC50 in experiment [1] was 340 nM.

With `O=C(CSc1ncnc2[nH]cnc12)c1ccc(Br)cc1`, in experiment [1], the IC50 is 2120 nM.

On to `Ic1ccccc1CSc1ncnc2[nH]cnc12`, for which the IC50 in experiment [1] worked out at 580 nM. In addition, the inhibition result in experiment [2] is “Active”.

Take `Brc1cccc(CSc2ncnc3[nH]cnc23)c1`: the IC50 in experiment [1] came to 130 nM.

On to `Brc1cccc(CSc2ncnc3sccc23)c1`, for which the inhibition in experiment [3] came out at 11%.

As to `Fc1ccc(CCSc2ncnc3c2ncn3CCc2ccc(F)cc2)cc1`, in experiment [3], the inhibition was determined as 12%.

Consider `Ic1ccc(CSc2ncnc3[nH]cnc23)cc1`, for which the IC50 in experiment [1] was found to be 300 nM. For the same compound, in experiment [2], the inhibition entry was “Active”.

For `O=[N+]([O-])c1cccc(CSc2ncnc3[nH]cnc23)c1`, the IC50 in experiment [1] turned out to be 190 nM.

For the compound `FC(F)(F)c1ccccc1CSc1ncnc2c1ncn2Cc1ccccc1C(F)(F)F`, the inhibition in experiment [3] came out at 9%.

For `COc1ccc(Sc2ncnc3[nH]cnc23)cc1`, the IC50 in experiment [1] was determined as 1720 nM.

Consider `Brc1ccc(CSc2[nH]cnc3ncnc2-3)cc1`, for which the IC50 in experiment [1] came out at 440 nM. Besides, the inhibition result in experiment [2] is “Active”.

On to `Fc1ccc(CCSc2ncnc3[nH]cnc23)cc1`, for which the IC50 in experiment [1] was 390 nM. The inhibition result in experiment [2] is “Active”.

With `FC(F)(F)c1cccc(CSc2ncnc3[nH]cnc23)c1`, in experiment [1], the IC50 was 320 nM. For the same compound, the inhibition result in experiment [2] is “Active”.

In the case of `Fc1cccc(CSc2ncnc3[nH]cnc23)c1`, in experiment [1], the IC50 is 360 nM. In addition, in experiment [2], the inhibition entry was “Active”.

In the case of `Ic1cccc(CSc2ncnc3[nH]cnc23)c1`, in experiment [1], the IC50 stood at 80 nM. Further, in experiment [2], the inhibition entry is “Active”.

As to `CSc1ccc(CSc2ncnc3[nH]cnc23)cc1`, the IC50 in experiment [1] was 140 nM. Besides, in experiment [2], the inhibition entry was “Active”.

For the compound `c1ccc(CSc2ncnc3[nH]ccc23)cc1`, the IC50 in experiment [1] was 230 nM. Also, the inhibition entry in experiment [2] was “Active”.

For `O=[N+]([O-])c1ccc(CSc2ncnc3[nH]cnc23)cc1`, the IC50 in experiment [1] worked out at 130 nM. In addition, the inhibition entry in experiment [2] was “Active”.

With `Brc1cccc(CSc2ncnc3[nH]ccc23)c1`, the IC50 in experiment [1] is 390 nM.

With `Clc1cccc(CNc2ncnc3nc[nH]c23)c1`, the IC50 in experiment [1] turned out to be 3060 nM.

Turning to `Clc1ccc(CCSc2ncnc3c2ncn3CCc2ccc(Cl)cc2)cc1`, in experiment [3], the inhibition came out at 3%.

Consider `Clc1ccc(CSc2[nH]cnc3ncnc2-3)cc1`, for which the IC50 in experiment [1] is 180 nM. Further, in experiment [2], the inhibition result is “Active”.

In the case of `Clc1ccc(CCSc2ncnc3[nH]cnc23)cc1`, the IC50 in experiment [1] is 140 nM. Besides, the inhibition result in experiment [2] is “Active”.

On to `Clc1ccccc1CCSc1ncnc2[nH]cnc12`, for which the 50% inhibitory concentration (IC50) in experiment [1] turned out to be 190 nM. The inhibition entry in experiment [2] is “Active”.

For the compound `Brc1ccc(COc2ncnc3[nH]cnc23)cc1`, in experiment [1], the IC50 stood at 910 nM. Besides, in experiment [2], the inhibition result was “Active”.

With `Clc1ccccc1CCSc1ncnc2c1ncn2CCc1ccccc1Cl`, in experiment [3], the inhibition is 4%.

With `COc1cccc(CSc2ncnc3[nH]cnc23)c1`, the IC50 in experiment [1] came out at 240 nM. Further, the inhibition result in experiment [2] was “Active”.

As for `c1ccc(CSc2ncnc3c2ncn3Cc2ccccc2)cc1`, the inhibition in experiment [3] was found to be 0%.

On to `OCc1ccc(CSc2ncnc3[nH]cnc23)cc1`, for which the half-maximal inhibitory concentration (IC50) in experiment [1] turned out to be 300 nM.

Take `Clc1cccc(CCSc2ncnc3c2ncn3CCc2cccc(Cl)c2)c1`: the inhibition in experiment [3] is 8%.

As to `c1ccc(COc2[nH]cnc3ncnc2-3)cc1`, in experiment [1], the IC50 stood at 170 nM.

Consider `O=C(CSc1[nH]cnc2ncnc1-2)c1ccc([N+](=O)[O-])cc1`, for which, in experiment [1], the IC50 was 3110 nM.

In the case of `Clc1cccc(CCSc2ncnc3[nH]cnc23)c1`, the IC50 in experiment [1] came to 300 nM. For the same compound, the inhibition result in experiment [2] was “Active”.

With `Clc1cccc(CSc2ncnc3c2ncn3Cc2cccc(Cl)c2)c1`, the inhibition in experiment [3] turned out to be 30%.

On to `O=C(CSc1[nH]cnc2ncnc1-2)c1ccc(Cl)cc1`, for which the IC50 in experiment [1] was 4150 nM.

Take `Clc1ccccc1CSc1ncnc2c1ncn2Cc1ccccc1Cl`: the inhibition in experiment [3] came out at 7%.

Turning to `FC(F)(F)c1ccc(CSc2ncnc3[nH]cnc23)cc1`, the concentration for half-maximal inhibition (IC50) in experiment [1] was determined as 360 nM. For the same compound, the inhibition entry in experiment [2] was “Active”.

With `CC(=O)Nc1ccc(CSc2ncnc3[nH]cnc23)cc1`, the IC50 in experiment [1] came out at 470 nM.

As for `Brc1ccc(Sc2ncnc3[nH]cnc23)cc1`, the IC50 in experiment [1] was 1380 nM.

With `FC(F)(F)c1ccccc1CSc1ncnc2[nH]cnc12`, the IC50 in experiment [1] was determined as 250 nM. The inhibition entry in experiment [2] is “Active”.

In the case of `c1ccc(CSc2ncnc3sccc23)cc1`, in experiment [3], the inhibition was 18%.

For the compound `Ic1ccccc1CSc1ncnc2c1ncn2Cc1ccccc1I`, in experiment [3], the inhibition came to 4%.
